Laboratory results published in patent US9296694B2, “Azacyclic compounds” (ACADIA Pharmaceuticals Inc., priority 2000, dated 2016).
Entries after “also recorded” stand apart in the source; their conditions may differ. Structures can show the parent of a compound that is named as a salt.

Key:
[1] = tested on: locomotor activity of mice (dizocilpine- or d-amphetamine-induced hyperactivity, spontaneous activity); experiment: Locomotor activity in mice; type: in vivo; conditions: for distance traveled (average): i.p., 15 min
Excerpt: (§1) Instruments) were used for rat experiments (details on startle apparatus and measures, see Male Non-Swiss Albino mice and male Sprague-Dawley rats (Harlan Sprague-Dawley) were housed (4 mice/cage; 2 rats/cage) in rooms with temperature and humidity controlled and water and food (Harlan Teklad) freely available. Mice were kept on a 12-hr light:dark cycle, whereas rats were kept on a 12-hr reverse light:dark cycle. For locomotor and observation experiments in mice, plastic 20×20×30 cm activity cages were equipped with photocell beams (AccuScan Instruments). Startle chambers (San Diego Instruments) were used for rat experiments (for details on startle apparatus and measures, see Mansbach et al., (1988) Psychopharmacology 94:507-14).
For hyperactivity experiments, mice were treated with 0.3 mg/kg dizocilpine or 3.0 mg/kg d-amphetamine i.p. 15 min before the session. Five minutes after the pretreatment, mice were treated with AC-90179 s.c. and placed into the activity cages. For spontaneous activity, AC-90179 was administered alone. Locomotor data were collected during a 15 min session without habituation in a lit room. Each dose combination was tested in a separate group of animals (n=8). Distance traveled (cm) was calculated and averaged followed by ANOVA and post-hoc Dunnett's t-test comparisons.

[2] = biological target: T1, 5-HT2A receptor (Homo sapiens, UniProt P28223); experiment: Receptor Selection and Amplification (R-SAT) assay, 5-HT2A inverse agonism; type: cell-based; conditions: for Percent Efficacy: compared to ritanserin
T1 construct: expressed in transfected cells; host or cells: NIH3T3 (mouse fibroblasts), pSI expression vector
Protocol: Briefly, NIH3T3 cells were grown in 96 well tissue culture plates to 70-80% confluence. Cells were transfected for 12-16 hours with plasmid DNAs using superfect (Qiagen Inc.) as per manufacture's protocols. R-SAT's were generally performed with 50 ng/well of receptor and 20 ng/well of Beta-galactosidase plasmid DNA. […] Large-scale transfections, cells were transfected for 12-16 hours, then trypsinized and frozen in DMSO. Frozen cells were later thawed, plated at 10,000-40,000 cells per well of a 96 well plate that contained drug. With both methods, cells were then grown in a humidified atmosphere with 5% ambient CO2 for five days. Media was then removed from the plates and marker gene activity was measured by the addition of the beta-galactosidase substrate ONPG (in PBS with 5% NP-40). […] All data were analyzed using the computer program XLFit (IDBSm).

[3] = tested on: DOI-induced head twitches in mice; experiment: Observation for head twitches in DOI-treated mice; type: in vivo; conditions: for MED (minimum effective dose in vivo): statistically significant reduction in head twitching score, DOI-treated mice, 0.1-30 mg/kg subcutaneous injection
Excerpt: as §1
Mice were treated with 2.5 mg/kg DOI i.p. Five min later, mice were treated with AC-90179 s.c. and placed into activity cages. Ten min later, mice were observed using a repeated sampling technique. […] Each dose combination was tested in a separate group of animals (n=8) and the experimenter was blind to drug conditions. Head twitch scores were averaged followed by analysis of variance (ANOVA) and post-hoc Dunnett's t-test comparisons.
The effect of various compounds on head twitch behavior in mice treated with DOI was observed as described in Example 139. Animals received 0.1-30 mg/kg of the compound indicated via subcutaneous injection. MED indicates the minimum effective dose at which a statistically significant reduction in head twitching score (described above) was observed. MED=minimum effective dose in vivo.

[4] = tested on: acoustic startle and prepulse inhibition in rats; experiment: Startle testing, prepulse inhibition (PPI) in rats; type: in vivo
Excerpt: as §1
Rats were tested and groups (n=10) matched for levels of startle reactivity and prepulse inhibition (PPI; see Mansbach et al., (1988) Psychopharmacology 94:507-14). Two days later, test sessions started and consisted of a 5-min acclimation period with a constant background noise (65 dB), followed by 60 presentations of acoustic stimuli to measure acoustic startle responses. The 60 trials consisted of: twenty two 40-ms presentations of a 120 dB broadband pulse, ten 20-ms presentations of each prepulse intensity (68, 71, 77 dB) 100 ms prior to a 40-msec presentation of a 120 dB broadband pulse, and 8 NOSTIM trials in which no stimuli were delivered in order to assess general motor activation in the rats. Thirty min before testing, rats were treated with sterile water (s.c.), risperidone (1.0 mg/kg, i.p.), or AC-90179 (s.c.). Five min later, rats were administered DOI (0.5 mg/kg, s.c.) or 0.9% saline (s.c.). One-week later, rats were administered the same pretreatment drug or vehicle and crossed over to receive the treatment opposite to that they received the previous week. Startle magnitudes and percent PPI for the three prepulse intensities were calculated as described elsewhere (Bakshi, et al., (1994) J. Pharmacol. Exp. Ther. 271:787-94) and ANOVAs with repeated measures performed.

[5] = mice, DOI 2.5 mg/kg i.p., 0.1-30 mg/kg, s.c., 10 min

T1 sequence (P28223 whole entry): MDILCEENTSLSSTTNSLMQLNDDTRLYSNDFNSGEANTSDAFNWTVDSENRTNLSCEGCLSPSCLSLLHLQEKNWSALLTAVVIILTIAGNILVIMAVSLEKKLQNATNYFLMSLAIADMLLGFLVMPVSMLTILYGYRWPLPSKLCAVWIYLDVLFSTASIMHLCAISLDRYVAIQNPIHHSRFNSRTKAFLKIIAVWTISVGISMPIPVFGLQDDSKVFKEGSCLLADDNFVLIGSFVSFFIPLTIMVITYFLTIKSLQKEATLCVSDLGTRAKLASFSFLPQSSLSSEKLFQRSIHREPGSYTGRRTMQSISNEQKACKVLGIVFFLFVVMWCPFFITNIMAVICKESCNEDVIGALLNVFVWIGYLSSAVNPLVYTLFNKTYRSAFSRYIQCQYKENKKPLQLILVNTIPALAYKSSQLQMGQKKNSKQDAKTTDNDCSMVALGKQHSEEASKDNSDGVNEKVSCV

C[C@H](N)Cc1ccccc1 [d-amphetamine, reference compound]
distance traveled (average) ([1]; 3.0 mg/kg): 3367 cm

COc1ccc(CC(=O)N(Cc2ccc(Cl)cc2)C2CCN(C(C)C)CC2)cc1 [Compound 42ELH79, 2-(4-Methoxyphenyl)-N-(4-chlorbenzyl)-N-(1-isopropylpiperidin-4-yl) acetamide]
pIC50 ([2]; Table 4 of Example 137): 8.5 | Percent Efficacy ([2]; Table 4 of Example 137): 110% | MED (minimum effective dose in vivo) [3]: ≦10 mg/kg

COc1ccc(CC(=O)N(Cc2ccc(Cl)cc2)C2CCN(C3CCCC3)CC2)cc1 [Compound 42ELH91, 2-(4-Methoxyphenyl)-N-(4-chlorbenzyl)-N-(1-cyclopentylpiperidin-4-yl)acetamide]
Percent Efficacy ([2]; Table 4 of Example 137): 108% | MED (minimum effective dose in vivo) [3]: >10 mg/kg

C[C@]12N[C@H](Cc3ccccc31)c1ccccc12 [Dizocilpine, dizocilpine, reference compound]
distance traveled (average) ([1]; 0.3 mg/kg): 2625 cm

Cc1ccc(CN(C(=O)Cc2ccc(N(C)C)cc2)C2CCN(C)CC2)cc1 [Compound 57MBT70-6D, N-((4-methylphenyl)methyl)-N-(1-methylpiperidin-4-yl)-2-(4-(N,N-dimethylamino)phenyl)acetamide hydrochloride]
IC50 ([2]; Table 4 of Example 137): 10 nM

CCN1CCC(N(Cc2ccc(Cl)cc2)C(=O)Cc2ccc(OC)cc2)CC1 [Compound 42ELH85, 2-(4-Methoxyphenyl)-N-(4-chlorbenzyl)-N-(1-ethylpiperidin-4-yl)acetamide]
Percent Efficacy ([2]; Table 4 of Example 137): 118% | MED (minimum effective dose in vivo) [3]: ≦10 mg/kg

N-(2-Phenylethyl)-N-(piperidin-4-yl)-4-methoxyphenylmethylacetamide [Compound 26HCH80-2]
pIC50 (average) ([2]; Table 1): 7.78 | Efficacy (average) ([2]; percent maximal repression compared to ritanserin, Table 1): 89%

COc1ccc(CC(=O)N(Cc2ccc(C)cc2)C2CCN(C)CC2)cc1 [Compound 50ELH27, 2-(4-Methoxyphenyl)-N-(4-methylbenzyl)-N-(1-methylpiperidin-4-yl)acetamide]
effect on startle magnitude ([4]; rats, 3-way repeated measures ANOVA): significant effect of pretreatment | restoration of PPI in DOI-treated rats ([4]; rats, DOI 0.5 mg/kg s.c., AC-90179 s.c., risperidone 1.0 mg/kg i.p.): effective in restoring this disruption especially at the higher doses; also recorded: significant effects | effect on PPI on its own ([4]; saline (vehicle)-treated rats, AC-90179 s.c., risperidone 1.0 mg/kg i.p.): did not affect PPI on its own; also recorded: no effect | effect on DOI-induced head-twitches [3, 5]: dose-related decrease | minimum effective dose against DOI-induced head-twitches [3, 5]: 1 mg/kg | effect on head twitch behavior at higher doses ([3]; mice, DOI 2.5 mg/kg i.p., higher doses, s.c.): completely eliminating head twitch behavior | MED (minimum effective dose in vivo) [3]: 1 mg/kg | effect on hyperactivity induced by dizocilpine ([1]; 0.3-10 mg/kg, s.c., 10 min, dizocilpine 0.3 mg/kg i.p.): attenuated | dose that reduced spontaneous locomotor activity ([1]; compound alone, s.c., only at the highest dose tested): 30 mg/kg | minimum effective dose against dizocilpine ([1]; hyperactivity induced by dizocilpine 0.3 mg/kg i.p., s.c.): 1 mg/kg
